Patent US8183387B2, “Phenylpyrazole derivatives” (Taisho Pharmaceutical Co., Ltd, priority 2007, dated 2012)

Target: human H3 receptor (Homo sapiens, UniProt Q9Y5N1)
Experiment: H3 receptor binding test (R(−)-α-methyl[3H]histamine)
Design: purchased Euroscreen ES-392-M; host or cells: CHO-K1
Conditions: inhibition of R(−)-α-methyl[3H]histamine (2 nM) binding, membrane of human H3 receptor-expressing CHO-K1 cells
Procedure: A membrane preparation of human H3 receptor-expressing CHO-K1 cells (Euroscreen, ES-392-M, 15 μg protein/200 μl), R(−)-α-methyl[^3H]histamine (Amersham, TRK-1017, specific activity: 1.74 TBq/mmol, 2 nM) and a test drug were reacted at room temperature for 1 hour. After completion of the reaction, the reaction mixture was subjected to suction filtration through a 0.3% polyethyleneimine-treated glass filter (GF/C). The glass filter was washed five times with 50 mM Tris-HCl washing solution (pH 7.4) containing 5 mM EDTA. After washing, the glass filter was dried and a scintillator was added thereto, followed by measurement of radioactivity on the filter using a liquid scintillation counter.
A fixed concentration (2 nM) of R(−)-α-methyl[^3H]histamine was reacted under the above conditions with each test drug at various concentrations to obtain an inhibition curve.

Sequence of human H3 receptor (Q9Y5N1 whole entry): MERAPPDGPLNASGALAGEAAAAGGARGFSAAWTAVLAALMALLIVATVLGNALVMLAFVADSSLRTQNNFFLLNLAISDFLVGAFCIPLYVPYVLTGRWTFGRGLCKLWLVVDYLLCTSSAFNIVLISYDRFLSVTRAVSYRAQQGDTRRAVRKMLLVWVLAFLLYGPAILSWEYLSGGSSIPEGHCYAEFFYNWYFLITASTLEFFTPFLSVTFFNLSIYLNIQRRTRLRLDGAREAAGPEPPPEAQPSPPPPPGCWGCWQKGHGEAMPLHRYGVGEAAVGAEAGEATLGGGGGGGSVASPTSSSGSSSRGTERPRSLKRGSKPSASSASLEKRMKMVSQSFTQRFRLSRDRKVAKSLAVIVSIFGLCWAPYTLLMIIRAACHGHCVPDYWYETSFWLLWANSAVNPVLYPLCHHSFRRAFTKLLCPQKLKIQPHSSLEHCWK

SMILES	IC50 [nM]
CC(=O)Nc1cnn(-c2ccc(OCCCN3CCC[C@H]3C)cc2)c1 [Example 37, N-[1-(4-{3-[(2R)-2-methylpyrrolidin-1-yl]propoxy}phenyl)-1H-pyrazol-4-yl]acetamide]	2.1
CC(=O)N(C)c1cnn(-c2ccc(OCCCN3CCC[C@H]3C)cc2)c1 [Example 38, N-methyl-N-[1-(4-{3-[(2R)-2-methylpyrrolidin-1-yl]propoxy}phenyl)-1H-pyrazol-4-yl]acetamide]	0.9
CCN(C(C)=O)c1cnn(-c2ccc(OCCCN3CCCC3C)cc2)c1 (stereo not drawn) [Example 39, N-ethyl-N-(1-{4-[3-(2-methylpyrrolidin-1-yl)propoxy]phenyl}-1H-pyrazol-4-yl)acetamide]	3.5
CC1CCCN1CCCOc1ccc(-n2cc(NC(=O)c3ccc(C#N)cc3)cn2)cc1 (stereo not drawn) [Example 40, 4-cyano-N-(1-{4-[3-(2-methylpyrrolidin-1-yl)propoxy]phenyl}-1H-pyrazol-4-yl)benzamide]	4.4
COc1ccc(C(=O)Nc2cnn(-c3ccc(OCCCN4CCCC4C)cc3)c2)cc1 (stereo not drawn) [Example 41, 4-methoxy-N-(1-{4-[3-(2-methylpyrrolidin-1-yl)propoxy]phenyl}-1H-pyrazol-4-yl)benzamide]	2.1
C[C@@H]1CCCN1CCCOc1ccc(-n2cc(NC(=O)c3ccc(O)cc3)cn2)cc1 [Example 42, 4-hydroxy-N-[1-(4-{3-[(2R)-2-methylpyrrolidin-1-yl]propoxy}phenyl)-1H-pyrazol-4-yl]benzamide]	1.7
C[C@@H]1CCCN1CCCOc1ccc(-n2cc(NC(=O)c3cccnc3)cn2)cc1 [Example 43, N-[1-(4-{3-[(2R)-2-methylpyrrolidin-1-yl]propoxy}phenyl)-1H-pyrazol-4-yl]pyridine-3-carboxamide]	1
C[C@@H]1CCCN1CCCOc1ccc(-n2cc(NC(=O)c3ccncc3)cn2)cc1 [Example 44, N-[1-(4-{3-[(2R)-2-methylpyrrolidin-1-yl]propoxy}phenyl)-1H-pyrazol-4-yl]pyridine-4-carboxamide]	0.8
C[C@@H]1CCCN1CCCOc1ccc(-n2cc(NC(=O)Cc3ccc(O)cc3)cn2)cc1 [Example 45, 2-(4-hydroxyphenyl)-N-[1-(4-{3-[(2R)-2-methylpyrrolidin-1-yl]propoxy}phenyl)-1H-pyrazol-4-yl]acetamide]	1.1
C[C@@H]1CCCN1CCCOc1ccc(-n2cc(NC(=O)Cc3cccnc3)cn2)cc1 [Example 46, N-[1-(4-{3-[(2R)-2-methylpyrrolidin-1-yl]propoxy}phenyl)-1H-pyrazol-4-yl]-2-(pyridin-3-yl)acetamide]	1.4
C[C@@H]1CCCN1CCCOc1ccc(-n2cc(NC(=O)Cc3ccncc3)cn2)cc1 [Example 47, N-[1-(4-{3-[(2R)-2-methylpyrrolidin-1-yl]propoxy}phenyl)-1H-pyrazol-4-yl]-2-(pyridin-4-yl)acetamide]	1.5
C[C@@H]1CCCN1CCCOc1ccc(-n2cc(NS(C)(=O)=O)cn2)cc1 [Example 48, N-[1-(4-{3-[(2R)-2-methylpyrrolidin-1-yl]propoxy}phenyl)-1H-pyrazol-4-yl]methanesulfonamide]	4.1
C[C@@H]1CCCN1CCCOc1ccc(-n2cc(N(C)S(C)(=O)=O)cn2)cc1 [Example 49, N-methyl-N-[1-(4-{3-[(2R)-2-methylpyrrolidin-1-yl]propoxy}phenyl)-1H-pyrazol-4-yl]methanesulfonamide]	3.1
CC1CCCN1CCCOc1ccc(-n2cc(NS(=O)(=O)c3ccc(C#N)cc3)cn2)cc1 (stereo not drawn) [Example 50, 4-cyano-N-(1-{4-[3-(2-methylpyrrolidin-1-yl)propoxy]phenyl}-1H-pyrazol-4-yl)benzenesulfonamide]	31.9
C[C@@H]1CCCN1CCCOc1ccc(-n2cc(NS(=O)(=O)c3cccnc3)cn2)cc1 [Example 51, N-[1-(4-{3-[(2R)-2-methylpyrrolidin-1-yl]propoxy}phenyl)-1H-pyrazol-4-yl]pyridine-3-sulfonamide]	13.7
CC1CCCN1CCCOc1ccc(-n2cc(N3C(=O)CCC3=O)cn2)cc1 (stereo not drawn) [Example 52, 1-(1-{4-[3-(2-methylpyrrolidin-1-yl)propoxy]phenyl}-1H-pyrazol-4-yl)pyrrolidine-2,5-dione]	6
C[C@@H]1CN(C(=O)c2cnn(-c3ccc(OCCCN4CCC[C@H]4C)cc3)c2)C[C@H](C)O1 [Example 53, (2,6-dimethylmorpholin-4-yl)[1-(4-{3-[(2R)-2-methylpyrrolidin-1-yl]propoxy}phenyl)-1H-pyrazol-4-yl]methanone]	6.1
C[C@@H]1CCCN1CCCCOc1ccc(-n2cc(C(=O)N3CCOCC3)cn2)cc1 [Example 61, [1-(4-{4-[(2R)-2-methylpyrrolidin-1-yl]butoxy}phenyl)-1H-pyrazol-4-yl](morpholin-4-yl)methanone]	39.2

Second part, the compound after the results:

IC50 [nM]	SMILES
50.7	CC1CCN(CCCOc2ccc(-n3cc(C(=O)N4CCOCC4)cn3)cc2)C1 (stereo not drawn) [Example 57, (1-{4-[3-(3-methylpyrrolidin-1-yl)propoxy]phenyl}-1H-pyrazol-4-yl)(morpholin-4-yl)methanone]
8.7	CCC1CCCN1CCCOc1ccc(-n2cc(C(=O)N3CCOCC3)cn2)cc1 (stereo not drawn) [Example 58, (1-{4-[3-(2-ethylpyrrolidin-1-yl)propoxy]phenyl}-1H-pyrazol-4-yl)(morpholin-4-yl)methanone]
1180	O=C(c1cnn(-c2ccc(OCCCN3CCCC3(F)F)cc2)c1)N1CCOCC1 [Example 59, (1-{4-[3-(2,2-difluoropyrrolidin-1-yl)propoxy]phenyl}-1H-pyrazol-4-yl)(morpholin-4-yl)methanone]
1560	C[C@@H]1CCCN1CCOc1ccc(-n2cc(C(=O)N3CCOCC3)cn2)cc1 [Example 60, [1-(4-{2-[(2R)-2-methylpyrrolidin-1-yl]ethoxy}phenyl)-1H-pyrazol-4-yl](morpholin-4-yl)methanone]
20.7	Cc1cc(OCCCN2CCC[C@H]2C)ccc1-n1cc(C(=O)N2CCOCC2)cn1 [Example 63, [1-(2-methyl-4-{3-[(2R)-2-methylpyrrolidin-1-yl]propoxy}phenyl)-1H-pyrazol-4-yl](morpholin-4-yl)methanone]
10	C[C@@H]1CCCN1CCCOc1ccc(-n2cc(C(=O)N3CCOCC3)cn2)cc1Br [Example 64, [1-(3-bromo-4-{3-[(2R)-2-methylpyrrolidin-1-yl]propoxy}phenyl)-1H-pyrazol-4-yl](morpholin-4-yl)methanone]
5.9	C[C@@H]1CCCN1CCCOc1ccc(-n2cc(C(=O)N3CCOC(O)C3)cn2)cc1 (stereo partly drawn) [Example 65, (2-hydroxymorpholin-4-yl)[1-(4-{3-[(2R)-2-methylpyrrolidin-1-yl]propoxy}phenyl)-1H-pyrazol-4-yl]methanone]
74.8	C[C@@H]1CCCN1CCCOc1ccc(-n2cc(C(=O)N(CCO)CC(=O)O)cn2)cc1 [Example 68, N-(2-hydroxyethyl)-N-{[1-(4-{3-[(2R)-2-methylpyrrolidin-1-yl]propoxy}phenyl)-1H-pyrazol-4-yl]carbonyl}glycine]
4.6	C[C@@H]1CCCN1CCCOc1ccc(-n2cc(C(=O)NCCOCCO)cn2)cc1 [Example 69, N-[2-(2-hydroxyethoxy)ethyl]-1-{4-[3-(2-methylpyrrolidin-1-yl)propoxy]phenyl}-1H-pyrazole-4-carboxamide]
